Values quoted from earlier work in patent US20090030057A1, “Pharmaceutical composition of telmisartan” (priority 2005, published 2009).
Where two headings read alike, the source gives them in different places.

solubility (in a strong acid (with the exception of hydrochloric acid)): sparingly soluble
solubility (in a strong base): soluble
solubility (in hydrochloric acid): insoluble
solubility (in water or an aqueous solution in the pH range of 3 to 9): practically insoluble
SMILES: CCCc1nc2c(C)cc(-c3nc4ccccc4n3C)cc2n1Cc1ccc(-c2ccccc2C(=O)O)cc1 [Telmisartan, 4′-[2-n-propyl-4-methyl-6-(1-methylbenzimid-azol-2-yl)benzimidazol-1-ylmethyl]biphenyl-2-carboxylic acid]
